Literature values in US20250368755A1, “PEPTIDE THAT SP[…] TO PPC REGION OF SARS-COV-2 SPIKE PROTEIN AND COMPOSITION FOR […]-COV-2 INFECTION USING THE SAME” (priority 2024, published 2025).
pKd: −log10 of the molar value.

Biological target: S1/S2 region
Conditions: known value; read-out: binding affinity of furin for the cleavage of S1/S2 region; cited from earlier work

Substance: furin
- pKd: 7.80
